{
  "source": "paper PMC9841527",
  "about": "(Journal of Medicinal Chemistry, 2022)",
  "key": {"[1]": {"target": "T1, CamA (Clostridioides difficile, UniProt Q183J3)", "T1 sequence (Q183J3 1-577)": "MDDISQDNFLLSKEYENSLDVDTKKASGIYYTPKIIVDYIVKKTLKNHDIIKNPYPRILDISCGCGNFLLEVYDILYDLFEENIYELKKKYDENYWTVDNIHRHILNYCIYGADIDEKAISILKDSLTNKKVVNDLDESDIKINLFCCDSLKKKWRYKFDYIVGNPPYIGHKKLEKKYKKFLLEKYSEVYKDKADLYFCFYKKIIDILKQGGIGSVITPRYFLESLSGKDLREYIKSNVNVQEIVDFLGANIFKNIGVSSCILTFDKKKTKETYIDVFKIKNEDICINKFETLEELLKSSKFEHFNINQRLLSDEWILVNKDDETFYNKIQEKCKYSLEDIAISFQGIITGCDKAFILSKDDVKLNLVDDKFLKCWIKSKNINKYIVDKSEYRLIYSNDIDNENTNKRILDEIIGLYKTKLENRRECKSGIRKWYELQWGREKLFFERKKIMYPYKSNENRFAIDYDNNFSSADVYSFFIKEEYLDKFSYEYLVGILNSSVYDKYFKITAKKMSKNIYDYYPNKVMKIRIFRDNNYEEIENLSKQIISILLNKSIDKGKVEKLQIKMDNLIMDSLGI", "type": "biochemical"}, "[2]": {"target": "T1, CamA", "test": "Isothermal titration calorimetry", "type": "binding"}, "[3]": {"target": "CcrM (Caulobacter vibrioides, UniProt P0CAW2)", "sequence (P0CAW2 whole entry)": "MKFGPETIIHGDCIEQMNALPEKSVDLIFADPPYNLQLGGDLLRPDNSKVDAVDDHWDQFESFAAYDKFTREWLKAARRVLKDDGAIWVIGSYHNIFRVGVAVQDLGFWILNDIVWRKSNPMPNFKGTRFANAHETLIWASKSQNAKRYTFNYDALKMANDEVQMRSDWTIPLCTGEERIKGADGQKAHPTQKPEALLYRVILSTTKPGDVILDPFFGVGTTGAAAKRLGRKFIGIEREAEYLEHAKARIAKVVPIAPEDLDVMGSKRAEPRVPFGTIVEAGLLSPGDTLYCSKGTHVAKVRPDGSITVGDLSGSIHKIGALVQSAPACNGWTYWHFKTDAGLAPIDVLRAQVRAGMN", "type": "biochemical, Caulobacter crescentus"}, "[4]": {"target": "T2, Dam (Escherichia coli, UniProt P0AEE8)", "T2 sequence (P0AEE8 1-278)": "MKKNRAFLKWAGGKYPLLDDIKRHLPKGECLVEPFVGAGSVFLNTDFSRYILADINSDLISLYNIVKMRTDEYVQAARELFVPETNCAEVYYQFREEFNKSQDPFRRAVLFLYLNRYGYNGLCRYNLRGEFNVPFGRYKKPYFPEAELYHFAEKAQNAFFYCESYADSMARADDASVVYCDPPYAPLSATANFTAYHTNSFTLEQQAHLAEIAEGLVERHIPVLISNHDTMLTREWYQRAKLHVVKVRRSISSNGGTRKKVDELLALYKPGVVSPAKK", "type": "biochemical"}, "[5]": {"target": "PCIF1 (Homo sapiens, UniProt Q9H4Z3)", "sequence (Q9H4Z3 whole entry)": "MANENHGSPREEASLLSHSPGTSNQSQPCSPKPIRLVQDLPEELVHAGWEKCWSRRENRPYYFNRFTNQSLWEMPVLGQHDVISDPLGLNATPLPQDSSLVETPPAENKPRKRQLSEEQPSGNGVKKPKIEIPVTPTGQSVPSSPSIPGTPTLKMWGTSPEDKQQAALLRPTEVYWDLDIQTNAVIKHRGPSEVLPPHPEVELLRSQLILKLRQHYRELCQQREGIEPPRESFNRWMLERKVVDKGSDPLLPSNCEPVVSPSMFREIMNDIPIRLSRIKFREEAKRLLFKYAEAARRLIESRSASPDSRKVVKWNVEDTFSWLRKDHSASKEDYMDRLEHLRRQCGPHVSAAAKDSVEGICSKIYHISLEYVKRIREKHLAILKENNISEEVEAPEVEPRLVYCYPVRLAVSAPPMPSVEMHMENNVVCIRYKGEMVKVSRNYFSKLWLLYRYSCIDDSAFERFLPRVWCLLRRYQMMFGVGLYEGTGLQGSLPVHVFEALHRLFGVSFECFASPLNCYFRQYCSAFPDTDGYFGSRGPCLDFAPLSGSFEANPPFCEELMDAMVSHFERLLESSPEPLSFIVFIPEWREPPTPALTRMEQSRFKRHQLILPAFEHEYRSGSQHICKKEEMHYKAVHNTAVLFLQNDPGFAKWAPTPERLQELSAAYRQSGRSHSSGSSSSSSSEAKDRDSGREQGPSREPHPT", "type": "biochemical"}, "[6]": {"target": "Dnmt3a-Dnmt3L (Mus musculus, UniProt O88508)", "type": "biochemical"}, "[7]": {"target": "DOT1L (Homo sapiens, UniProt Q8TEK3)", "sequence (Q8TEK3 whole entry)": "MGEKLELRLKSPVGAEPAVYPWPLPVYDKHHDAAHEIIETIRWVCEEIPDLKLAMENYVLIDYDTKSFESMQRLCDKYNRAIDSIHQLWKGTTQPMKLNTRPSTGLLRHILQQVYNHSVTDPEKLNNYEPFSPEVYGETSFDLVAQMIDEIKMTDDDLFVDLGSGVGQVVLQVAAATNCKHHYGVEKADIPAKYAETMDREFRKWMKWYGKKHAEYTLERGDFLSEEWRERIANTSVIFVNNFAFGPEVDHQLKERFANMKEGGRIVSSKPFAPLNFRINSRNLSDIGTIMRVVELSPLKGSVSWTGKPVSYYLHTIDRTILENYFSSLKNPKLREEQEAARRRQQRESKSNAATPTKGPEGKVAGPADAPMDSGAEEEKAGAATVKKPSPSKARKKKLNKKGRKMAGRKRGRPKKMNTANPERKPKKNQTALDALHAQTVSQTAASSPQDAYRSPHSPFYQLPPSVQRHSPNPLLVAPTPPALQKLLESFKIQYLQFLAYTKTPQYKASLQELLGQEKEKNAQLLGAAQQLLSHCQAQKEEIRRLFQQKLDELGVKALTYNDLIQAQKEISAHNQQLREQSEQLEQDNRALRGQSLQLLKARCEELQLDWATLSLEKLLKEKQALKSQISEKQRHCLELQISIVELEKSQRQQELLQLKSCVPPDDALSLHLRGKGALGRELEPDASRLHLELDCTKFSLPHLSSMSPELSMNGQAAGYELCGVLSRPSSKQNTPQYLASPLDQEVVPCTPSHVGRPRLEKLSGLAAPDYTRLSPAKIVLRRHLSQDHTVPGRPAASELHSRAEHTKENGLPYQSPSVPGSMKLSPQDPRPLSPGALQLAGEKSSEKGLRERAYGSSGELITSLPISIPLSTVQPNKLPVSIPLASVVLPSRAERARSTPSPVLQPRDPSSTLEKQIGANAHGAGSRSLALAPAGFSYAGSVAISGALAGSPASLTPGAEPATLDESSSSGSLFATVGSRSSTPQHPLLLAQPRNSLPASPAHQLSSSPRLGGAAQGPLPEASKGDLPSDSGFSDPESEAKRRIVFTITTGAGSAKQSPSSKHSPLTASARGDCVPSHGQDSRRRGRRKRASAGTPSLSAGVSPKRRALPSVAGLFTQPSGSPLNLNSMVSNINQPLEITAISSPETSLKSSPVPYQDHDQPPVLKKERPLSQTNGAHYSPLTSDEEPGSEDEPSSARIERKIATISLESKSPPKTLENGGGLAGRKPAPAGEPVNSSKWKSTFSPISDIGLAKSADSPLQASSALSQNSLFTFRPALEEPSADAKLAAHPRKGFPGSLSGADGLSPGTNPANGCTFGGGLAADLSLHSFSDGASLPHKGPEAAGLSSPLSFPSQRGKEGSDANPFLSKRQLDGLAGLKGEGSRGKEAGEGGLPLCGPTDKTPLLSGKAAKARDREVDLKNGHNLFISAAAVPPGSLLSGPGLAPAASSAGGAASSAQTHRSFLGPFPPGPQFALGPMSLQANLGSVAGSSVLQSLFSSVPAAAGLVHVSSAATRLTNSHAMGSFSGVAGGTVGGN", "test": "Selectivity assay, DOT1L", "type": "biochemical", "details": "compound 10 μM, 3H-SAM 1 μM"}, "[8]": {"target": "PRMT1 (Homo sapiens, UniProt Q99873)", "sequence (Q99873 whole entry)": "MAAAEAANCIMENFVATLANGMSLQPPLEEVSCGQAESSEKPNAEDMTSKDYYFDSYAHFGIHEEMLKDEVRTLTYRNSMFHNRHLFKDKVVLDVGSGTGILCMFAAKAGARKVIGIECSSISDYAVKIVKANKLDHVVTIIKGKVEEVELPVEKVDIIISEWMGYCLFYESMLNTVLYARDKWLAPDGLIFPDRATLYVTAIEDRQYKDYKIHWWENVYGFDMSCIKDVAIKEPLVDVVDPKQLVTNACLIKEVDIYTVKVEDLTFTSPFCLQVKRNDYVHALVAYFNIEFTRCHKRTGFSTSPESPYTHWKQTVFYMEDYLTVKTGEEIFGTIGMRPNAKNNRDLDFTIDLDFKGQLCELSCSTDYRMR", "test": "Selectivity assay, PRMT1", "type": "biochemical", "details": "compound 10 μM, 3H-SAM 1 μM"}, "[9]": {"target": "T3, G9a (Homo sapiens, UniProt Q96KQ7)", "T3 sequence (Q96KQ7 1-1210)": "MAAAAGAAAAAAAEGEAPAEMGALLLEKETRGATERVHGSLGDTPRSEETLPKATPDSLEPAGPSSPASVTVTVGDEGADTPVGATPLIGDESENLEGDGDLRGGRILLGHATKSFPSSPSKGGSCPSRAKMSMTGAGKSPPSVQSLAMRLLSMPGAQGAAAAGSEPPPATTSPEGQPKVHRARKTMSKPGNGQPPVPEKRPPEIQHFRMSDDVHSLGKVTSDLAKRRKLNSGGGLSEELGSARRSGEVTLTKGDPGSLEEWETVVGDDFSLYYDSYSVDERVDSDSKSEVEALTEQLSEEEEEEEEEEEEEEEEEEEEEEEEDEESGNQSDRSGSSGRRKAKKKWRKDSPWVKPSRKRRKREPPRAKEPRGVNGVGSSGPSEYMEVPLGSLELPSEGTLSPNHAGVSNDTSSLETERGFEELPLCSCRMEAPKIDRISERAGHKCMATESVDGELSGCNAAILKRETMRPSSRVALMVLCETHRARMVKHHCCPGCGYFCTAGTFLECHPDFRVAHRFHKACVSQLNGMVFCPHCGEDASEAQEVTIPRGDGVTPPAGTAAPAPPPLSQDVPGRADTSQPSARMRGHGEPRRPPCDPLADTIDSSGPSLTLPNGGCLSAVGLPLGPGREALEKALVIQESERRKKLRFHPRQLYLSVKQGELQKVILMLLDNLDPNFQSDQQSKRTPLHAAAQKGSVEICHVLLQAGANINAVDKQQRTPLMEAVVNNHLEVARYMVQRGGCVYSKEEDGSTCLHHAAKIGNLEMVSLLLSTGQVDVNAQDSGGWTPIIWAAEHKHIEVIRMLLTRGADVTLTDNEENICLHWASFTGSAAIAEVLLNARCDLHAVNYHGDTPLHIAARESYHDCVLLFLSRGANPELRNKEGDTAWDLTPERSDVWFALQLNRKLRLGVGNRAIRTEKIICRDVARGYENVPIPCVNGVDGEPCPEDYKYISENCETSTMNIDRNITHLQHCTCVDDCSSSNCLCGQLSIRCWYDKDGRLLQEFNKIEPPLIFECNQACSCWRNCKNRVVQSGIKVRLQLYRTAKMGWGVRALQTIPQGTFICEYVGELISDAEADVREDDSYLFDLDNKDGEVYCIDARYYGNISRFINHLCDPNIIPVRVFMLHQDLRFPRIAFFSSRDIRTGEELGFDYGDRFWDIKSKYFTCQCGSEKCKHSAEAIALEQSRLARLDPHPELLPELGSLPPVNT", "test": "Selectivity assay, G9a", "type": "biochemical", "details": "compound 10 μM, 3H-SAM 1 μM"}, "[10]": {"target": "T4, A1 adenosine receptor (A1AR) (Homo sapiens, UniProt P30542)", "T4 sequence (P30542 1-326)": "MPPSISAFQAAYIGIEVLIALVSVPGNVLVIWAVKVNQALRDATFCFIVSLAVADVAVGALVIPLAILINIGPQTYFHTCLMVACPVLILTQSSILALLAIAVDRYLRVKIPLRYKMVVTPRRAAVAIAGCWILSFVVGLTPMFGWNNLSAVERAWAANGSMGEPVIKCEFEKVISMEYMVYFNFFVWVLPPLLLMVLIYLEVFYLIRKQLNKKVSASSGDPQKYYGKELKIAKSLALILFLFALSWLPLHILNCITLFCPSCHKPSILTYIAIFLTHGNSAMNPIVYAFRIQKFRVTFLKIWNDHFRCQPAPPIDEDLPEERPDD", "test": "A1AR agonist radioligand binding assay", "details": "compound 10 μM, [3H]CCPA 1 nM, transfected CHO cell membranes"}, "[11]": {"target": "MettL3-MettL14 (Homo sapiens, UniProt Q86U44)", "sequence (Q86U44 whole entry)": "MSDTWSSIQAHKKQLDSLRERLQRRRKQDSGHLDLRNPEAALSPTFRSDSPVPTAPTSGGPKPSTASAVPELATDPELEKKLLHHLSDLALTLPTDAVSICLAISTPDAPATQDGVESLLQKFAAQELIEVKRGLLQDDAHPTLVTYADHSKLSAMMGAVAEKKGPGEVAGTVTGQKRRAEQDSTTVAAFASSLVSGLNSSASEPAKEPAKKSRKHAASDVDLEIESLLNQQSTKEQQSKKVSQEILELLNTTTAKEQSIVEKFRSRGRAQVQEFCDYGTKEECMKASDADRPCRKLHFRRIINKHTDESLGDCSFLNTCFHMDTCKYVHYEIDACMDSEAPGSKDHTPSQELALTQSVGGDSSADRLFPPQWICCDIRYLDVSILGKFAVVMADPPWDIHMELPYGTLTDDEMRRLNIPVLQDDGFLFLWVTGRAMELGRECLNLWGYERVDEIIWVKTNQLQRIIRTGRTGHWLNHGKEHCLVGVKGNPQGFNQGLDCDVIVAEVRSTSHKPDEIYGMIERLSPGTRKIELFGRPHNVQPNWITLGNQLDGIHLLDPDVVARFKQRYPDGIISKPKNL", "sequence (Q9HCE5 whole entry partner)": "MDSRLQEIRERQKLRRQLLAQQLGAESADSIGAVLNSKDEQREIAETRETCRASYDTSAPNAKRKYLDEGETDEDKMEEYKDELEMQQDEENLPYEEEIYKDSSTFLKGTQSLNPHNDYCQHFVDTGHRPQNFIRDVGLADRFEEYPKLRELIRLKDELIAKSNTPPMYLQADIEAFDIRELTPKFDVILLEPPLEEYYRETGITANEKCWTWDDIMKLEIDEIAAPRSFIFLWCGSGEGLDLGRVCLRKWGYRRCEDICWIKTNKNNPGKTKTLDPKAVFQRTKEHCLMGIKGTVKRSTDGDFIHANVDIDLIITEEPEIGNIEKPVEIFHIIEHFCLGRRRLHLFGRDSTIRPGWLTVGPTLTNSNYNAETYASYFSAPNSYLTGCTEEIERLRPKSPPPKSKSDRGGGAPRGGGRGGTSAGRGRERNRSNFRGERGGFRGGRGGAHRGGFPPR", "test": "Selectivity assay, MettL3-MettL14", "type": "biochemical", "details": "[I] = 10 μM, [SAM] = 20 μM, 5 mM NaCl, or CamA conditions"}},
  "data": [
    {"compound": "OC[C@H]1O[C@@H](n2cnc3c(NCc4ccc(O)cc4)ncnc32)[C@H](O)[C@@H]1O", "note": "[Compound 3]", "values": [
      {"measurement": "improved IC50, fold", "setting": "[1]", "value": "~2", "unit": "×"},
      {"measurement": "tighter binding in KD, fold", "setting": "[2]; compared to compound 2", "value": 2.6, "unit": "×"}
    ]},
    {"compound": "Nc1ncnc2c1ncn2[C@@H]1O[C@H](C[C@@H](N)CC[C@H](N)C(=O)O)[C@@H](O)[C@H]1O", "note": "[sinefungin, reference compound]", "values": [
      {"measurement": "inhibition of CcrM", "setting": "[3]", "value": "showed measurable inhibition"},
      {"measurement": "effect on CamA activity", "setting": "[1]", "value": "inhibiting CamA"},
      {"measurement": "inhibition of Dam", "setting": "[4]", "value": "showed measurable inhibition"},
      {"measurement": "inhibition of PCIF1", "setting": "[5]", "value": "showed measurable inhibition"},
      {"measurement": "inhibition of Dnmt3a-Dnmt3L", "setting": "[6]", "value": "showed measurable inhibition"}
    ]},
    {"compound": "Nc1ncnc2c1ncn2[C@@H]1O[C@H](CSCC[C@H](N)C(=O)O)[C@@H](O)[C@H]1O", "note": "[SAH, S-adenosyl-L-homocysteine, reference compound]", "values": [
      {"measurement": "inhibition of DOT1L", "setting": "[7]", "value": "exhibited measurable inhibition"},
      {"measurement": "inhibition of PRMT1", "setting": "[8]", "value": "exhibited measurable inhibition"},
      {"measurement": "inhibition of G9a", "setting": "[9]", "value": "exhibited measurable inhibition"}
    ]},
    {"compound": "CC(C)N(CCCNC(=O)Nc1ccc(C(C)(C)C)cc1)C[C@H]1O[C@@H](n2cc(Br)c3c(N)ncnc32)[C@H](O)[C@@H]1O", "note": "[SGC0946, reference compound]", "values": [
      {"measurement": "inhibition of CamA activity", "setting": "[1]", "value": "inhibits CamA activity completely"},
      {"measurement": "stronger inhibition, fold in IC50", "setting": "[1]", "value": "~9", "unit": "×"},
      {"measurement": "improved binding, fold in KD", "setting": "[2]; vs EPZ004777", "value": "~3", "unit": "×"}
    ]},
    {"compound": "Nc1ccc(CCCNc2ncnc3c2ncn3[C@@H]2O[C@H](CO)[C@@H](O)[C@H]2O)cc1", "note": "[Compound 15, (2R,3R,4S,5R)-2-(6-((3-(4-Aminophenyl)propyl)amino)-9H-purin-9-yl)-5-(hydroxymethyl)tetrahydrofuran-3,4-diol]", "values": [
      {"measurement": "enhanced binding, fold", "setting": "[2]; compared to 2 and 9", "value": "9–12 ×"}
    ]},
    {"compound": "OC[C@H]1O[C@@H](n2cnc3c(NC4CCCC4)ncnc32)[C@H](O)[C@@H]1O", "note": "[N^6-cyclopentyladenosine, reference compound]", "values": [
      {"measurement": "inhibition of control radioligand specific binding, A1AR", "setting": "[10]", "value": "completely abolished radioligand binding"}
    ]},
    {"compound": "O=C(NCc1cn2cc(CNCC3CCCCC3)ccc2n1)c1cc(=O)n2ccccc2n1", "note": "[STM2457, reference compound]", "values": [
      {"measurement": "effect on CamA activity", "setting": "[1]", "value": "had no effect on CamA activity"},
      {"measurement": "inhibition of MettL3-MettL14", "setting": "[11]", "value": "inhibited"}
    ]},
    {"compound": "OC[C@H]1O[C@@H](n2cnc3c(NCCCCCCc4ccccc4)ncnc32)[C@H](O)[C@@H]1O", "note": "[Compound 21, (2R,3S,4R,5R)-2-(Hydroxymethyl)-5-(6-((6-phenylhexyl)amino)-9H-purin-9-yl)tetrahydrofuran-3,4-diol]", "values": [
      {"measurement": "relative inhibition of CamA activity", "setting": "[1]", "value": "decreased the inhibition potency"}
    ]},
    {"compound": "OC[C@H]1O[C@@H](n2cnc3c(NCCCc4ccccc4)ncnc32)[C@H](O)[C@@H]1O", "note": "[Compound 14, (2R,3S,4R,5R)-2-(Hydroxymethyl)-5-(6-((3-phenylpropyl)amino)-9H-purin-9-yl)tetrahydrofuran-3,4-diol]", "values": [
      {"measurement": "lower IC50 value, fold", "setting": "[1]", "value": "~21", "unit": "×"},
      {"measurement": "lower KD value, fold", "setting": "[2]; compared to compound 1", "value": "~26", "unit": "×"}
    ]},
    {"compound": "CC(C)(C)OC(=O)NCCC1CCN(c2ncnc3c2ncn3[C@@H]2O[C@H](CO)[C@@H](O)[C@H]2O)CC1", "note": "[Compound 40, tert-Butyl-(2-(1-(9-((2R,3R,4S,5R)-3,4-dihydroxy-5-(hydroxymethyl)tetrahydrofuran-2-yl)-9H-purin-6-yl)piperidin-4-yl)ethyl)carbamate]", "values": [
      {"measurement": "CamA inhibition", "setting": "[1]", "value": "loss of inhibition"},
      {"measurement": "relative inhibition of CamA activity", "setting": "[1]", "value": "loss of inhibition"}
    ]},
    {"compound": "5′-methylthioadenosine [MTA, reference compound]", "values": [
      {"measurement": "enhanced binding, fold", "setting": "[2]; compared to sinefungin", "value": "~2", "unit": "×"},
      {"measurement": "stronger binding, fold", "setting": "[2]; than adenosine", "value": "> 7", "unit": "×"}
    ]},
    {"compound": "OC[C@H]1O[C@@H](n2cnc3c(NCCCC4CCNCC4)ncnc32)[C@H](O)[C@@H]1O", "note": "[Compound 42, (2R,3S,4R,5R)-2-(Hydroxymethyl)-5-(6-((3-(piperidin-4-yl)propyl)amino)-9H-purin-9-yl)tetrahydrofuran-3,4-diol]", "values": [
      {"measurement": "lower potency in inhibiting CamA, fold", "setting": "[1]", "value": "~10", "unit": "fold"}
    ]},
    {"compound": "CC(C)(C)OC(=O)N1CCC2(CCN(c3ncnc4c3ncn4[C@@H]3O[C@H](CO)[C@@H](O)[C@H]3O)CC2)C1", "note": "[Compound 41, tert-Butyl-8-(9-((2R,3R,4S,5R)-3,4-dihydroxy-5-(hydroxymethyl)tetrahydrofuran-2-yl)-9H-purin-6-yl)-2,8-diazaspiro[4.5]decane-2-carboxylate]", "values": [
      {"measurement": "CamA inhibition", "setting": "[1]", "value": "loss of inhibition"},
      {"measurement": "relative inhibition of CamA activity", "setting": "[1]", "value": "loss of inhibition"}
    ]}
  ]
}
